These results are taken from ChEMBL document CHEMBL4270488, “Antibacterial Compounds from Marine Bacteria, 2010-2015” (J Nat Prod, 2017).

Values after ≈ are worked out from the molar mass of the structure shown. *1 amine or outer side, *2 acyl side, *3 side chain or, on linkers, in order; H or OH if unused. Where a SMILES comes first, the peptide text is derived from it. Bridges are numbered along the chain shown (N, C = ends). Roman numbers before positions name the chains, in order. [ ]: non-standard residue; d: D form. Actinocin(1to9) = Cc1c2oc3c(C)ccc(C(=O)[*:2])c3nc-2c(C(=O)[*:1])c(N)c1=O; Pro(4-oxo) = O=C1CN[C@H](C(=O)O)C1; NMeV = CN[C@H](C(=O)O)C(C)C; Sar = CNCC(=O)O

Assay [1] concerns Mycobacterium tuberculosis variant bovis. The assay can be described thus: Antibacterial activity against Mycobacterium bovis BCG str. Pasteur 1173P2 incubated for 16 hrs. The assay is classed as functional.
For assay [2] the test system is unchanged. Put plainly: Antibacterial activity against Mycobacterium bovis BCG str. Pasteur 1173P2 incubated for 3 days by GFP based fluorescence assay. The assay is classed as functional. The conditions noted are these: 72 h.

Usually MIC stands for the lowest concentration found to suppress growth. A low value points to a more susceptible organism. On to `COC(=O)N[C@H]1[C@@H](C)O[C@@H](O[C@H]2C/C=C(\C)[C@@H]3C=C[C@@H]4[C@@H](O[C@H]5C[C@@H](O[C@H]6C[C@@H](O)[C@@H](O[C@@H]7C[C@@H](O)[C@@H](OC)[C@H](C)O7)[C@H](C)O6)[C@@H](O)[C@H](C)O5)[C@@H](C)C[C@H](C)[C@H]4[C@]3(C)C(=O)C3=C(O)[C@@]4(C[C@@H](C)C(CO)=C[C@H]4/C=C/2C)OC3=O)C[C@]1(C)[N+](=O)[O-]`, for which the MIC in assay [1] was in the range of 0.8 to 1.5 µg/mL (≈ 0.674 to 1.26 µM). `Cc1c2oc3c(C)ccc(C(=O)N[C@@H]4C(=O)N[C@H](C(C)C)C(=O)N5CCC[C@H]5C(=O)N(C)CC(=O)N(C)[C@@H](C(C)C)C(=O)O[C@@H]4C)c3nc-2c(C(=O)N[C@@H]2C(=O)N[C@H](C(C)C)C(=O)N3CC(O)C[C@H]3C(=O)N(C)CC(=O)N(C)[C@@H](C(C)C)C(=O)O[C@@H]2C)c(N)c1=O` (stereo not given in full) gave an MIC in assay [2] of 0.2 to 0.5 µg/mL (≈ 0.157 to 0.393 µM). Turning to `COC(=O)N[C@H]1[C@@H](C)O[C@@H](O[C@H]2C/C=C(\C)[C@@H]3C=C[C@@H]4[C@@H](O[C@H]5C[C@@H](O[C@H]6C[C@@H](O)[C@@H](O[C@@H]7C[C@@H](O)[C@@H](OC)[C@H](C)O7)[C@H](C)O6)[C@@H](O)[C@H](C)O5)[C@@H](C)C[C@H](C)[C@H]4[C@]3(C)C(=O)C3=C(O)[C@@]4(C[C@@H](C)C(CO)=C[C@H]4/C=C/2C)OC3=O)C[C@]1(C)N`, the minimal inhibitory concentration (MIC) in assay [1] lay in the range of 0.8 to 1.5 µg/mL (≈ 0.691 to 1.3 µM). The molecule `Cc1c2oc3c(C)ccc(C(=O)N[C@@H]4C(=O)N[C@H](C(C)C)C(=O)N5CCC[C@H]5C(=O)N(C)CC(=O)N(C)[C@@H](C(C)C)C(=O)O[C@@H]4C)c3nc-2c(C(=O)N[C@@H]2C(=O)N[C@H](C(C)C)C(=O)N3CC(=O)C[C@H]3C(=O)N(C)CC(=O)N(C)[C@@H](C(C)C)C(=O)O[C@@H]2C)c(N)c1=O` (I: T[dV][Pro(4-oxo)][Sar][NMeV] / II: T[dV]P[Sar][NMeV]; ester I:1-I:C, II:1-II:C; linker I:N-II:N via Actinocin(1to9)) registered an MIC in assay [2] of 0.2 to 0.5 µg/mL (≈ 0.158 to 0.394 µM). Same read-out and setting: the same measure for `Cc1c2oc3c(C)ccc(C(=O)N[C@@H]4C(=O)N[C@H](C(C)C)C(=O)N5CCC[C@H]5C(=O)N(C)CC(=O)N(C)[C@@H](C(C)C)C(=O)O[C@@H]4C)c3nc-2c(C(=O)N[C@@H]2C(=O)N[C@H](C(C)C)C(=O)N3CCC[C@H]3C(=O)N(C)CC(=O)N(C)[C@@H](C(C)C)C(=O)O[C@@H]2C)c(N)c1=O` [DACTINOMYCIN] (I: T[dV]P[Sar][NMeV] / II: T[dV]P[Sar][NMeV]; ester I:1-I:C, II:1-II:C; linker I:N-II:N via Actinocin(1to9)): 0.2 to 0.5 µg/mL (≈ 0.159 to 0.398 µM).
